Experimental data reported in US11865095B2, “Combination drug substance of polyamine transport inhibitor and DFMO” (Aminex Therapeutics, Inc., priority 2020, dated 2024).
Read-outs that look alike come from different tables or passages of the source.

Experiments:
[1] = First-in-human clinical trial NCT03536728 Part 1: plasma pharmacokinetics and tolerability of oral AMXT 1501 dicaprate and DFMO
[2] = mouse, in vivo
in vivo = conditions: BALB/c, mouse, tumor, subcutaneous, 2.5 mg/kg
clinical = conditions: human, in vivo, po
cancer cells = assay: in vitro EC50 against cancer cells; type: cell-based
water solubility = type: physicochemical
[3] = bioavailability / Biopharmaceutics Classification System class

In the case of `CCCCCCCCCCCCCCCC(=O)NCCCC[C@@H](N)C(=O)NCCCNCCCCNCCCN` [AMXT 1501, D-lys(palmitoyl)-spermine], the “duration of plasma levels” value ([1]; Cohort 5, over the 24-hour dosing time increment) is reported as “sustained over the 24-hour dosing time increment”, the “adverse effects observed in patients” value ([1]; Part 1 patients, mainly gastrointestinal (nausea and diarrhea)) is reported as “modest Grades 1 and 2 adverse effects” and the Cmax ([1]; human, in vivo) is reported as under 1000 ng/mL. The “mean AMXT 1501 exposure versus dose” value ([1]; single or repeat PO dosing, dose levels of 160 mg AMXT 1501 and higher) was “increased in a dose-dependent manner”, the “AMXT 1501 tumor AUC” value [2] was 152,000 hr*ng/mL and the Kp (in vivo) was 14. For the same molecule, the Cmax (clinical) was 794 ng/mL, the EC50 (cancer cells; equivalent of 50 nM, read-out: plasma concentration equivalent to in vitro EC50) was 0.028 µg/mL and the EC50 (cancer cells; read-out: in vitro EC50 against cancer cells) was 50 nM.
In the case of `NCCCC(N)(C(=O)O)C(F)F` (centres unmarked) [DFMO, difluoromethylornithine], the water solubility (water solubility) is reported as “high”.
With `CCCCCCCCCC(=O)O.CCCCCCCCCC(=O)O.CCCCCCCCCCCCCCCC(=O)NCCCC[C@@H](N)C(=O)NCCCNCCCCNCCCN` [AMXT 1501 dicaprate] the bioavailability [3] was “low”.
